# Laboratory results published in patent US20220370322A1, “UV BLOCKING COMPOSITION COMPRISING RED ALGAE-DERIVED FLORIDOSIDE AND AMINE GROUP-CONTAINING COMPOUND” (ATHENA CO., LTD., priority 2019, published 2022).
# Values joined by “and” are separate entries in the source; they are usually repeats but may differ in a detail not shown here. Identical values can stand only once.
# How the values were obtained:
# [1] = tested on: Raw 264.7 cells; assay: Cytotoxicity test (Cell Counting Kit-8); assay type: cell-based; settings: for Viability (%): 24 hours, CCK-8; for Absorbance AVERAGE: absorbance at 450 nm, mean of three; for Absorbance: single replicates, measured at 450 nm
# Description: A cytotoxicity test was performed on the sample, which had been identified to be floridoside, by using the Cell Counting Kit-8 kit (DOJINDO, CK04-05).
# Raw 264.7 cells were cultured at 1×10^4 cells/well in a DMEM medium containing 10% FBS in a 96-well plate at 37° C. in 5% CO2 incubator for 24 hours, and then treated with a drug. After the cells were cultured at 37° C. in the 5% CO2 incubator for 24 hours, CCK-8 solution was added, followed by incubation at 37° C. for 2 hours, and then the absorbance was measured at 450 nm.
# [2] = tested on: skin; assay: Primary patch test for human body application (skin irritation, ICDRG criteria); assay type: in vivo; design: key to Mean score of the skin reaction: mean of ICDRG-graded reactions via skin reaction formula; settings: 31 subjects
# Description: A primary patch test for human body application was performed on the sample.
# Subjects of the test were determined for skin irritation by a dermatologist a total of 4 times (the date of a patch, the date of removal of the patch, and 24 hours and 120 hours after removal of the patch) during the test period.
# The skin patch test was performed using the Van der Bend chamber (Van der Bend, Brielle, the Netherlands). For each of 31 subjects, the sample was applied between the shoulder blade and the waist line on the basis of the spin on the back by using the Van der Bend chamber.
# A site of the test was washed with distilled water and dried, and then the sample was dissolved in 10% distilled water. Thereafter, 35 μl was dropped in the Van der Bend chamber, which was then put and fixed on the site of the test. The sample was patched on the skin for 48 hours, and after the removal of the patch, the site of the test was marked with a marking pen, and the site of the test was observed after 30 minutes, 24 hours, and 120 hours.
# With respect to the skin reaction, the degrees of irritation were classified according to the evaluation criteria of the International Contact Dermatitis Research Group (ICDRG) as shown in Table 2 below.
# The mean score of the skin reaction was calculated by the skin reaction calculation formula, and then the presence or absence of irritation was determined according to the decision table of the skin patch test.
structure (smiles),measurement,setting,value
"OCC(CO)O[C@H]1O[C@H](CO)[C@H](O)[C@H](O)[C@H]1O [Floridoside, 2-O-α-D-galactopyranosylglycerol]",Viability (%),"[1]; 1 ppm, Raw 264.7 cells",83%
same,Absorbance AVERAGE,[1]; 1 ppm,2.594
same,Absorbance,[1]; 1 ppm,2.73 and 2.59 and 2.47
same,Viability (%),"[1]; 10 ppm, Raw 264.7 cells",88%
same,Absorbance AVERAGE,[1]; 10 ppm,2.746
same,Absorbance,[1]; 10 ppm,2.69 and 2.73 and 2.81
same,Viability (%),"[1]; 100 ppm, Raw 264.7 cells",88%
same,Absorbance AVERAGE,[1]; 100 ppm,2.759
same,Absorbance,[1]; 100 ppm,2.68 and 2.79 and 2.81
same,Viability (%),"[1]; 500 ppm, Raw 264.7 cells",89%
same,Absorbance AVERAGE,[1]; 500 ppm,2.790
same,Absorbance,[1]; 500 ppm,2.72 and 2.8 and 2.85
same,Viability (%),"[1]; 1000 ppm, Raw 264.7 cells",89%
same,Absorbance AVERAGE,[1]; 1000 ppm,2.781
same,Absorbance,[1]; 1000 ppm,2.75 and 2.77 and 2.82
same,Cell protective effect,"[1]; Raw 264.7 cells, 1-1000 ppm, conclusion in words",excellent cell protective effect
same,Determination (skin patch test),[2]; decision table of the skin patch test,No irritation
same,Mean score of the skin reaction,[2]; skin reaction calculation formula,0.00
same,"Degree of reaction + (first line), number of subjects",[2]; After 30 minutes,0
same,"Degree of reaction + (second line), number of subjects",[2]; After 30 minutes,0
same,"Degree of reaction +++, number of subjects",[2]; After 30 minutes,0
same,"Degree of reaction ++, number of subjects",[2]; After 30 minutes,0
same,"Degree of reaction + (first line), number of subjects",[2]; After 24 hours,0
same,"Degree of reaction + (second line), number of subjects",[2]; After 24 hours,0
same,"Degree of reaction +++, number of subjects",[2]; After 24 hours,0
same,"Degree of reaction ++, number of subjects",[2]; After 24 hours,0
same,"Degree of reaction + (first line), number of subjects",[2]; After 120 hours,0
same,"Degree of reaction + (second line), number of subjects",[2]; After 120 hours,0
same,"Degree of reaction +++, number of subjects",[2]; After 120 hours,0
same,"Degree of reaction ++, number of subjects",[2]; After 120 hours,0
